Test results published in PMC4403932 (Journal of Medicinal Chemistry, 2015).
Several values for one entry are separate records, joined by “and”; a condition that tells them apart may be missing. Equal entries are not always repeated. Entries after “also recorded” stand apart in the source; their conditions may differ. Where two headings read alike, the source gives them in different places.

Columns and labels:
[1] = target: T1, BRD4(1) (Homo sapiens, UniProt O60885); assay: Protein stability (thermal) shift assay, BRD4(1); assay type: binding
T1 construct: made in house

[2] = system: HEK293 cells; assay: In vitro cytotoxicity (CellTiter-Glo); assay type: cell-based, human; conditions: cell viability, 0.005-33 μM
Method: Following NanoBRET substrate addition and NanoBRET measurements, to the same wells an equal volume of CellTiter-Glo reagent (Promega) was added and the plates were incubated for 30 min at room temperature. Total luminescence was measured, and relative compound toxicity was determined by comparing the RLUs (relative light units) of a sample containing DMSO vehicle (in the absence of compound 11) to the RLUs of the samples containing 0.005–33 μM compound 11.

[3] = target: T2, BRD2(1) (Homo sapiens, UniProt P25440); assay: Isothermal titration calorimetry, BRD2(1); assay type: binding; conditions: for Kd / TΔS / ΔG / N (stoichiometry) / ΔHobs: ITC, 15 °C; for Kd: 50 mM HEPES pH 7.5, 150 mM NaCl, triplicate; for Kd / N (stoichiometry) / ΔHobs: reverse titration; for LE (ligand efficiency): LE = ΔG/N, N number of non-hydrogen atoms
T2 construct: Fragments were tested in a thermal shift assay against bromodomains of the BET subfamily; made in house
Method: (§1) Experiments were carried out on an ITC200 titration microcalorimeter from MicroCal, LLC (GE Healthcare) equipped with a Washing module, with a cell volume of 0.2003 mL, and a 40 μL microsyringe. Experiments were carried out at 15 °C while stirring at 1000 rpm, in ITC buffer (50 mM HEPES, pH 7.5 (at 25 °C), 150 mM NaCl). The microsyringe was loaded with a solution of the protein sample (300−740 μM protein for BRD9 and BRD4(1), respectively, in ITC buffer) and was carefully inserted into the calorimetric cell which was filled with an amount of the ligand (0.2 mL, 20–25 μM in ITC buffer). The system was first allowed to equilibrate until the cell temperature reached 15 °C, and an additional delay of 60 s was applied. All titrations were conducted using an initial control injection of 0.3 μL followed by 38 identical injections of 1 μL with a duration of 2 s (per injection) and a spacing of 120 s between injections. The titration experiments were designed in such a fashion as to ensure complete saturation of the proteins before the final injection. The heat of dilution for the proteins was independent of their concentration and corresponded to the heat observed from the last injection, following saturation of ligand binding, thus facilitating the estimation of the baseline of each titration from the last injection. The collected data were corrected for protein heats of dilution (measured on separate experiments by titrating the proteins into ITC buffer) and deconvoluted using the MicroCal Origin software supplied with the instrument to yield enthalpies of binding (ΔH) and binding constants (KB) in the same fashion as that previously described in detail by Wiseman and co-workers.[66] Thermodynamic parameters were calculated using the basic equation of thermodynamics (ΔG = ΔH – TΔS = −RT ln KB, where ΔG, ΔH, and ΔS are the changes in free energy, enthalpy, and entropy of binding, respectively). In all cases a single binding site model was employed, supplied with the MicroCal Origin software package.

[4] = target: T3, BRD9 (Homo sapiens, UniProt Q9H8M2); assay: Protein stability (thermal) shift assay, BRD9; assay type: binding
T3 construct: made in house
T3 sequence (Q9H8M2 136-240 limits assumed): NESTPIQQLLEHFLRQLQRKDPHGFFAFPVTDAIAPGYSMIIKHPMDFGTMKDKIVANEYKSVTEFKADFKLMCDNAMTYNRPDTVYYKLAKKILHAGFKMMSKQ

[5] = target: T1, BRD4(1); assay: Isothermal titration calorimetry, BRD4(1); assay type: binding; conditions: for Kd / TΔS / ΔG / N (stoichiometry) / ΔHobs: ITC; for LE (ligand efficiency): LE = ΔG/N, N number of non-hydrogen atoms
Method: as §1

[6] = target: T4, PCAF (Homo sapiens, UniProt Q92831); assay: Protein stability (thermal) shift assay, PCAF; assay type: binding; conditions: compound 10 μM, protein 2 μM; average of triplicate
T4 construct: representative BRDs from other structural subfamilies (family I, PCAF); made in house
T4 sequence (Q92831 723-827 limits assumed): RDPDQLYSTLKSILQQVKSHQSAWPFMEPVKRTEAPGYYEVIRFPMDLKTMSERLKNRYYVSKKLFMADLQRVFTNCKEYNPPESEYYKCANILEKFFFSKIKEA

[7] = target: T5, BRD4(2) (Homo sapiens, UniProt O60885); assay: Protein stability (thermal) shift assay, BRD4(2); assay type: binding; conditions: compound 10 μM, protein 2 μM; average of triplicate
T5 construct: made in house

[8] = target: T6, BRDT(2) (Homo sapiens, UniProt Q58F21); assay: Protein stability (thermal) shift assay, BRDT(2); assay type: binding; conditions: compound 10 μM, protein 2 μM; average of triplicate; read-out: ΔTm Shift, BRDT(2)
T6 construct: made in house

[9] = target: T2, BRD2(1); assay: Protein stability (thermal) shift assay, BRD2(1); assay type: binding; conditions: compound 10 μM, protein 2 μM; average of triplicate
[10] = target: T7, CREBBP (Homo sapiens, UniProt Q92793); assay: Protein stability (thermal) shift assay, CREBBP; assay type: binding; conditions: compound 10 μM, protein 2 μM; average of triplicate; read-out: ΔTm Shift, CREBBP
T7 construct: small thermal shits (1.0–1.3 °C) for the bromodomain of CREBBP; made in house

[11] = thermal shift, 10 μM compound, 2 μM protein, read-out: ΔTm
[12] = 50 mM HEPES pH 7.5, 150 mM NaCl, 15 °C, reverse titration, triplicate, read-out: KD
[13] = read-out: dissociation constant

T2 sequence (P25440 74-180 limits assumed): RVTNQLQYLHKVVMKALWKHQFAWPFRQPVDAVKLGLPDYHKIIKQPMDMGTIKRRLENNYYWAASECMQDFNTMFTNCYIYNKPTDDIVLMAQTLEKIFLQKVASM
T7 sequence (Q92793 1085-1192 limits assumed): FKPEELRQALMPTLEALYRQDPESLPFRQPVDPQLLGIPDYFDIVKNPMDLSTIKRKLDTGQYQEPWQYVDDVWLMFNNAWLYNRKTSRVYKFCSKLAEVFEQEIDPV

Row | Kd [3] [µM] | TΔS [3] [kJ/mol] | ΔG [3] | N (stoichiometry) [3] | ΔHobs [3] | LE (ligand efficiency) [3] | Kd [5, 12] [µM] | TΔS ([5]; 15 °C) [kJ/mol] | ΔG ([5]; 15 °C) | N (stoichiometry) ([5]; 15 °C, reverse titration) | ΔHobs ([5]; 15 °C, reverse titration) | Kd [5, 13] | LE (ligand efficiency) [5] | ΔTm at 10 µM [6] [°C] | ΔTm at 10 µM [7] [°C] | ΔTm at 10 µM [8] [°C] | ΔTm at 10 µM [9] [°C] | ΔTm at 10 µM [10] [°C] | Structure (SMILES) | cytotoxicity toward HEK293 cells (in words) [2] | also measured
1 | 4.44 ± 0.162 | 1.84 | –7.06 kcal/mol | 0.99 ± 0.011 | –6.62 ± 0.09 kcal/mol | 0.37 | 4.65 ± 0.197 | 3.93 | –7.03 kcal/mol | 0.99 ± 0.018 | –6.09 ± 0.14 kcal/mol | 4.7 µM and 4.65 µM | 0.37 | -0.45 | 0.6 | 1.8 | 2.5 | 2.9 | COc1ccc(Br)cc1-c1nc(N)nc2[nH]cnc12 [Compound 7d, 2-Amino-6-(5-bromo-2-methoxyphenyl)-9H-purine] | not cytotoxic | ΔTm at 10 µM [1, 11]: 3.2 °C; ΔTm at 10 µM ([4]; compound 10 μM, protein 2 μM, average of triplicate, read-out: ΔTm Shift, BRD9): 3.6 °C
2 | 1.42 ± 0.06 | 8.62 | –7.71 kcal/mol | 1.02 ± 0.006 | –5.65 ± 0.04 kcal/mol | 0.39 | 1.37 ± 0.029 | 5.61 | –7.73 kcal/mol | 1.09 ± 0.002 | –6.39 ± 0.02 kcal/mol | 1.4 µM and 1.37 µM | 0.39 | 0.9 | 2.8 | 4 | 2.8 | 3.6 | Nc1nc(-c2cc(Br)cc3c2OCC3)c2nc[nH]c2n1 [Compound 11, 2-Amino-6-(5-bromo-2,3-dihydrobenzo[b]furan-7-yl)-9H-purine] | did not observe any cytotoxicty; also recorded: not cytotoxic; also recorded: not toxic | ΔTm at 10 µM ([1]; compound 10 μM, protein 2 μM, average of triplicate, read-out: ΔTm Shift, BRD4(1)): 5.3 °C; ΔTm at 10 µM [4, 11]: 6.5 °C
